Measured values taken from PubChem BioAssay (NCI).
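GI50 marks 50% less growth. The concentration for full growth arrest is given as TGI.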

Legend:
Assay in all cases: growth of human tumour cells (NCI), 384-well format
HL-60(TB) leukemia = system: HL-60(TB) leukemia
OVCAR-3 ovarian = system: OVCAR-3 ovarian
SK-MEL-2 melanoma = system: SK-MEL-2 melanoma
OVCAR-8 ovarian = system: OVCAR-8 ovarian
EKVX NSCLC = system: EKVX NSCLC
SF-539 CNS = system: SF-539 CNS
A498 renal = system: A498 renal
TK-10 renal = system: TK-10 renal
SK-MEL-5 melanoma = system: SK-MEL-5 melanoma
SNB-19 CNS = system: SNB-19 CNS
HCC-2998 colon = system: HCC-2998 colon
NCI/ADR-RES ovarian = system: NCI/ADR-RES ovarian
MALME-3M melanoma = system: MALME-3M melanoma
M14 melanoma = system: M14 melanoma
NCI-H226 lung = system: NCI-H226 lung
A549 NSCLC = system: A549 NSCLC
NCI-H23 lung = system: NCI-H23 lung
PC-3 prostate = system: PC-3 prostate
CCRF-CEM leukemia = system: CCRF-CEM leukemia
MDA-MB-468 breast = system: MDA-MB-468 breast
SK-OV-3 ovarian = system: SK-OV-3 ovarian
UACC-257 melanoma = system: UACC-257 melanoma
SN12C renal = system: SN12C renal
NCI-H460 NSCLC = system: NCI-H460 NSCLC
CAKI-1 renal = system: CAKI-1 renal
U251 glioblastoma = system: U251 glioblastoma
ACHN renal = system: ACHN renal
RXF 393 renal = system: RXF 393 renal
COLO 205 colon = system: COLO 205 colon
RPMI-8226 leukemia = system: RPMI-8226 leukemia
MDA-MB-231 breast = system: MDA-MB-231 breast
SF-268 CNS = system: SF-268 CNS
DU-145 prostate = system: DU-145 prostate
T-47D breast = system: T-47D breast
SR leukemia = system: SR leukemia
OVCAR-4 ovarian = system: OVCAR-4 ovarian
HCT-15 colon = system: HCT-15 colon
786-0 renal = system: 786-0 renal
MCF7 breast = system: MCF7 breast
HOP-62 NSCLC = system: HOP-62 NSCLC
SK-MEL-28 melanoma = system: SK-MEL-28 melanoma
HS 578T breast = system: HS 578T breast
SW-620 colon = system: SW-620 colon
HOP-92 NSCLC = system: HOP-92 NSCLC
NCI-H322M lung = system: NCI-H322M lung
SNB-75 CNS = system: SNB-75 CNS
OVCAR-5 ovarian = system: OVCAR-5 ovarian
HT29 colon = system: HT29 colon
BT-549 breast = system: BT-549 breast
KM12 colon = system: KM12 colon
SF-295 CNS = system: SF-295 CNS
NCI-H522 lung = system: NCI-H522 lung
UACC-62 melanoma = system: UACC-62 melanoma
IGROV1 ovarian = system: IGROV1 ovarian
MDA-MB-435 melanoma = system: MDA-MB-435 melanoma
MOLT-4 leukemia = system: MOLT-4 leukemia

In the case of `CC1(C)CC(O)CC(C)(C)N1O`, the GI50 (HL-60(TB) leukemia) was greater than 100 µM, the TGI (HL-60(TB) leukemia) was greater than 100 µM and the GI50 (OVCAR-3 ovarian) was 71.7 µM. The TGI (OVCAR-3 ovarian) was greater than 100 µM, the GI50 (SK-MEL-2 melanoma) was greater than 100 µM and the TGI (SK-MEL-2 melanoma) was greater than 100 µM. For the same compound, the GI50 (OVCAR-8 ovarian) was greater than 100 µM, the TGI (OVCAR-8 ovarian) was greater than 100 µM and the GI50 (EKVX NSCLC) was greater than 100 µM. For the same compound, the TGI (EKVX NSCLC) was greater than 100 µM, the GI50 (SF-539 CNS) was greater than 100 µM and the TGI (SF-539 CNS) was greater than 100 µM. The GI50 (A498 renal) was greater than 100 µM, the TGI (A498 renal) was greater than 100 µM and the GI50 (TK-10 renal) was greater than 100 µM. It also gave a TGI (TK-10 renal) greater than 100 µM, a GI50 (SK-MEL-5 melanoma) greater than 100 µM and a TGI (SK-MEL-5 melanoma) greater than 100 µM. For the same compound, the GI50 (SNB-19 CNS) was greater than 100 µM, the TGI (SNB-19 CNS) was greater than 100 µM and the GI50 (HCC-2998 colon) was greater than 100 µM. The TGI (HCC-2998 colon) was greater than 100 µM, the GI50 (NCI/ADR-RES ovarian) was greater than 100 µM and the TGI (NCI/ADR-RES ovarian) was greater than 100 µM. For the same compound, the GI50 (MALME-3M melanoma) was greater than 100 µM, the TGI (MALME-3M melanoma) was greater than 100 µM and the GI50 (M14 melanoma) was greater than 100 µM. It also gave a TGI (M14 melanoma) greater than 100 µM, a GI50 (NCI-H226 lung) greater than 100 µM and a TGI (NCI-H226 lung) greater than 100 µM. It also gave a GI50 (A549 NSCLC) greater than 100 µM, a TGI (A549 NSCLC) greater than 100 µM and a GI50 (NCI-H23 lung) greater than 100 µM. For the same compound, the TGI (NCI-H23 lung) was greater than 100 µM, the GI50 (PC-3 prostate) was greater than 100 µM and the TGI (PC-3 prostate) was greater than 100 µM. For the same compound, the GI50 (CCRF-CEM leukemia) was 47.2 µM, the TGI (CCRF-CEM leukemia) was greater than 100 µM and the GI50 (MDA-MB-468 breast) was 29.8 µM. It also gave a TGI (MDA-MB-468 breast) greater than 100 µM, a GI50 (SK-OV-3 ovarian) greater than 100 µM and a TGI (SK-OV-3 ovarian) greater than 100 µM. The GI50 (UACC-257 melanoma) was greater than 100 µM, the TGI (UACC-257 melanoma) was greater than 100 µM and the GI50 (SN12C renal) was greater than 100 µM. For the same compound, the TGI (SN12C renal) was greater than 100 µM, the GI50 (NCI-H460 NSCLC) was greater than 100 µM and the TGI (NCI-H460 NSCLC) was greater than 100 µM. For the same compound, the GI50 (CAKI-1 renal) was greater than 100 µM, the TGI (CAKI-1 renal) was greater than 100 µM and the GI50 (U251 glioblastoma) was greater than 100 µM. The TGI (U251 glioblastoma) was greater than 100 µM, the GI50 (ACHN renal) was greater than 100 µM and the TGI (ACHN renal) was greater than 100 µM. For the same compound, the GI50 (RXF 393 renal) was greater than 100 µM, the TGI (RXF 393 renal) was greater than 100 µM and the GI50 (COLO 205 colon) was greater than 100 µM. For the same compound, the TGI (COLO 205 colon) was greater than 100 µM, the GI50 (RPMI-8226 leukemia) was greater than 100 µM and the TGI (RPMI-8226 leukemia) was greater than 100 µM. For the same compound, the GI50 (MDA-MB-231 breast) was greater than 100 µM, the TGI (MDA-MB-231 breast) was greater than 100 µM and the GI50 (SF-268 CNS) was greater than 100 µM. For the same compound, the TGI (SF-268 CNS) was greater than 100 µM, the GI50 (DU-145 prostate) was greater than 100 µM and the TGI (DU-145 prostate) was greater than 100 µM. It also gave a GI50 (T-47D breast) greater than 100 µM, a TGI (T-47D breast) greater than 100 µM and a GI50 (SR leukemia) greater than 100 µM. The TGI (SR leukemia) was greater than 100 µM, the GI50 (OVCAR-4 ovarian) was 19.9 µM and the TGI (OVCAR-4 ovarian) was greater than 100 µM. For the same compound, the GI50 (HCT-15 colon) was greater than 100 µM, the TGI (HCT-15 colon) was greater than 100 µM and the GI50 (786-0 renal) was greater than 100 µM. For the same compound, the TGI (786-0 renal) was greater than 100 µM, the GI50 (MCF7 breast) was greater than 100 µM and the TGI (MCF7 breast) was greater than 100 µM. It also gave a GI50 (HOP-62 NSCLC) greater than 100 µM, a TGI (HOP-62 NSCLC) greater than 100 µM and a GI50 (SK-MEL-28 melanoma) greater than 100 µM. The TGI (SK-MEL-28 melanoma) was greater than 100 µM, the GI50 (HS 578T breast) was greater than 100 µM and the TGI (HS 578T breast) was greater than 100 µM. For the same compound, the GI50 (SW-620 colon) was greater than 100 µM, the TGI (SW-620 colon) was greater than 100 µM and the GI50 (HOP-92 NSCLC) was greater than 100 µM. The TGI (HOP-92 NSCLC) was greater than 100 µM, the GI50 (NCI-H322M lung) was greater than 100 µM and the TGI (NCI-H322M lung) was greater than 100 µM. It also gave a GI50 (SNB-75 CNS) greater than 100 µM, a TGI (SNB-75 CNS) greater than 100 µM and a GI50 (OVCAR-5 ovarian) greater than 100 µM. The TGI (OVCAR-5 ovarian) was greater than 100 µM, the GI50 (HT29 colon) was greater than 100 µM and the TGI (HT29 colon) was greater than 100 µM. It also gave a GI50 (BT-549 breast) greater than 100 µM, a TGI (BT-549 breast) greater than 100 µM and a GI50 (KM12 colon) greater than 100 µM. The TGI (KM12 colon) was greater than 100 µM, the GI50 (SF-295 CNS) was greater than 100 µM and the TGI (SF-295 CNS) was greater than 100 µM. It also gave a GI50 (NCI-H522 lung) greater than 100 µM, a TGI (NCI-H522 lung) greater than 100 µM and a GI50 (UACC-62 melanoma) greater than 100 µM. It also gave a TGI (UACC-62 melanoma) greater than 100 µM, a GI50 (IGROV1 ovarian) greater than 100 µM and a TGI (IGROV1 ovarian) greater than 100 µM. It also gave a GI50 (MDA-MB-435 melanoma) greater than 100 µM, a TGI (MDA-MB-435 melanoma) greater than 100 µM and a GI50 (MOLT-4 leukemia) of 44.5 µM. It also gave a TGI (MOLT-4 leukemia) greater than 100 µM.
